≈ marks a conversion by molar mass, not a printed value.

Data set [1] relates to HT-29 cells. Details: method as in earlier work. As to conditions: ref 29 (Kocyigit et al.); cited from earlier work.
The subject of data set [2] is HT-29 cells. In words: MTT assay, cell viability. The format is cell-based, human. As to conditions: HT-29, MTT, 100 µg/mL, 24 h.
Data set [3] has as its system Escherichia coli K12. In words: MBC assay. The format is cell-based. Conditions: E. coli K12.
In data set [4] the test system is Staphylococcus aureus ATCC 25923. In words: MBC assay. The format is cell-based. Conditions: S. aureus ATCC 25923.
The test system of data set [5] is Enterococcus faecalis ATCC 29212. The data set is described as follows: MBC assay. The format is cell-based. As to conditions: E. faecalis ATCC 29212.
Data set [6] relates to HT-29 cells. In words: RealTime-Glo Annexin V Apoptosis and Necrosis Assay. The format is cell-based, human. As to conditions: HT-29, during 12 h incubation, applied concentrations 10-100 µg/mL. The procedure: The process of apoptosis was determined using the RealTime-Glo Annexin V Apoptosis and Necrosis Assay (Promega) according to the manufacturer’s protocol. Briefly, 1 × 10^4 HT-29 cells were seeded into a single well of a 96-well plate. After overnight incubation, the cells were treated with 10, 25, 50 and 100 µg/mL of the investigated compounds and detection reagent for 24 h. As a negative control, untreated cells were used. The luminescence, fluorescence and OD525 signals were detected at each hour of the first 12 h of incubation. The end measurement was performed at the 24th hour of the experiment. All samples were prepared in triplicate, and then their means were calculated.

Data set [7] deals with Escherichia coli K12. The data set is described as follows: MIC, microdilution method. The format is cell-based. Conditions: E. coli K12; MHB, 18 h, 37 °C; tested 512 to 1 µg/mL.
For data set [8], the system named is Staphylococcus aureus ATCC 25923. In words: MIC, microdilution method. The format is cell-based. Conditions: S. aureus ATCC 25923; MHB, 18 h, 37 °C; tested 512 to 1 µg/mL.
The subject of data set [9] is Enterococcus faecalis ATCC 29212. The data set is described as follows: MIC, microdilution method. The format is cell-based. Conditions: E. faecalis ATCC 29212; MHB, 24 h, 37 °C; tested 512 to 1 µg/mL.
For the next data set, the system named is 3T3-L1 cells. In words: SRB assay, cytotoxicity. The format is cell-based, mouse. As to conditions: 3T3-L1, SRB, 24 h exposure, three independent repeats.
Data set [10] has as its system HT-29 cells. The data set is described as follows: SRB assay, cytotoxicity. The format is cell-based, human. Conditions: HT-29, SRB, 24 h exposure, three independent repeats.

As to `O/N=C1\CC(c2ccc(O)cc2)Oc2cc(O)cc(O)c21` (centres unmarked) [NGOX, naringenin oxime, reference compound], the concentration for half-maximal inhibition (IC50) in the data set on HT-29 cells [1] is reported as 175 µg/mL (≈ 609 µM). In addition, the “reduction in cell viability” value in the data set on HT-29 cells [2] is on record as “more than 50%”. Further, the minimal bactericidal concentration (MBC) (against Escherichia coli K12 [3]; in data set [4]; in data set [5]) was above 512 µg/mL each time. The “annexin V luminescence and necrosis fluorescence signals versus untreated cells” value with HT-29 cells [6] is recorded as “both signals were similar to those for untreated cells”. The minimal inhibitory concentration (MIC) is 512 µg/mL (≈ 1780 µM) in the data set on Escherichia coli K12 [7], above 512 µg/mL in [8] and 512 µg/mL (≈ 1780 µM) in data set [9]. In addition, the entries for the “Cytotoxicity (IC50 ± SD)” value with 3T3-L1 cells and in the data set with HT-29 cells [10] were 29.18 ± 2.00 µg/mL and above 100 µg/mL, respectively.

The values above are taken from article PMC10298275, “Antiproliferative Activity and Impact on Human Gut Microbiota of New O-Alkyl Derivatives of Naringenin and Their Oximes” (International Journal of Molecular Sciences, 2023).
